Experimental data from US20040048900A1, “Nicotine and/or nicotine agonists for the treatment of general anesthetic effects and side effects” (priority 2002, published 2004).
Values joined by “and” are separate entries in the source; they are usually repeats but may differ in a detail not shown here. Equal entries are not always repeated. “Also recorded” adds a separate entry of the source.

Assays:
female mice = test: MAC and LORR of isoflurane; format: in vivo
Description: Isoflurane causes hyperalgesia in female mice. […] Increased HPWL occurred at concentrations above 0.86% that were associated with sedation. MAC in these animals was 1.5±0.1% and LORR (mean partial pressures bracketing postural response and lack of response to placing the animal in a supine position) occurred at 0.59 +0.2% isoflurane.
5-28 mice were studied per group.

[1] = target: T1, human α4β2 nAChRs expressed in Xenopus oocytes (Homo sapiens, UniProt P17787+P43681); test: Two-microelectrode voltage clamp of ACh-activated currents in Xenopus oocytes; format: cell-based
T1 construct: expressed in transfected cells; host or cells: Xenopus laevis oocytes injected with cRNA (1:1 α4 to β2)
T1 sequence (P43681 29-627 limits assumed): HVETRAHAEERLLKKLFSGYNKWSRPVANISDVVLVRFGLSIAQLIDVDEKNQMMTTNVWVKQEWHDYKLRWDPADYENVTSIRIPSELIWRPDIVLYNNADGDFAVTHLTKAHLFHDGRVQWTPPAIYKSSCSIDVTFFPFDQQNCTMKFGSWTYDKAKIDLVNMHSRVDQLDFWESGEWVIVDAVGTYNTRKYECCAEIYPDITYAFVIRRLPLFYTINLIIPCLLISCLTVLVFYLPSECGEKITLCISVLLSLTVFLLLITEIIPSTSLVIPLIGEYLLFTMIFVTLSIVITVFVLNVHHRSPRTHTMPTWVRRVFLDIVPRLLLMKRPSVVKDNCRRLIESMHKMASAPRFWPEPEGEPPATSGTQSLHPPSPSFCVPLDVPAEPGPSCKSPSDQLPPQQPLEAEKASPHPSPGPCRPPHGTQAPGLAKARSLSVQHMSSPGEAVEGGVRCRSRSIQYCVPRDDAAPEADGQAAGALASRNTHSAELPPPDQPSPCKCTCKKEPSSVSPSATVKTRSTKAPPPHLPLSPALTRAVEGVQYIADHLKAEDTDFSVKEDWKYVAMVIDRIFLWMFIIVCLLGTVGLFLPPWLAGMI
T1 sequence (P17787 26-502): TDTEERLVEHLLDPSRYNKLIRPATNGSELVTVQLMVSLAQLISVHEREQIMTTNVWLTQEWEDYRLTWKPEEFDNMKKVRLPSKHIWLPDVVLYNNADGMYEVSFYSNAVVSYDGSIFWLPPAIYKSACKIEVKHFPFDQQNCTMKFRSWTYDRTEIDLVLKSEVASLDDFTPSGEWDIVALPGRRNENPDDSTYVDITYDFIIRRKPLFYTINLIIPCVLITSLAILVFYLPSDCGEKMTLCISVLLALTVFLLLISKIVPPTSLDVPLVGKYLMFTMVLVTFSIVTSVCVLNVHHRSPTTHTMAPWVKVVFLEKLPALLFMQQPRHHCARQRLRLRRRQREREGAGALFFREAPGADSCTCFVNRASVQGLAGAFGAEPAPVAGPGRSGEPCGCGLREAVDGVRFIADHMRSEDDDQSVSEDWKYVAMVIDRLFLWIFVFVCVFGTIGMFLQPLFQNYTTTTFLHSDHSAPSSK
Procedure: The human α4 and β2 type nAChRs were in a pSP64 expression vector. Standard techniques were used to linearize the vectors and use them as templates to make cRNA using SP6 as the polymerase. The human nicotinic clones were a gift from Dr. Jon Lindstrom, Ph.D. (Department of Neuroscience, University of Pennsylvania, Philadelphia, Pa.).
Xenopus laevis oocytes were removed from the females and defolliculated with collagenase. After the oocytes rested for 24 hours in L-15 oocyte medium, about 10 ng of a 1:1 ratio of α4 to β2 cRNA were injected into individual oocytes. A manual injector was used for this process (Nanoject; Drummond Scientific, Broomall, Pa.). The oocytes were incubated for 2-5 days in ND-96 medium (NaCl 96 mM, KCl 2 mM, MgCl2 1 mM, CaCl2 H2O 1.8 mM, HEPES 5 mM, Na-pyruvate 2.5 mM, theophylline 0.5 mM, and 10mg/L of gentamicin, adjusted to pH 7.5).
Whole oocytes were used to record currents using a Gene-Clamp 500 two-microelectrode voltage-clamp amplifier with an active ground (Axon Instruments, Inc., Foster, Cailf.). The recording electrodes were pulled from glass capillary tubing (Drummond, Broomall, Pa.) to obtain a resistance between 1 and 5 MΩ and filled with 3M KCl. Ba^2 Ringer's solution was used as the extracellular solution in order to avoid current amplification by calcium activated chloride currents (115 mM NaCl, 2.5 mM KCl, 1.8 mM BaCl2, 10 mM HEPES, 1 μM atropine, pH 7.4). Atropine was included to avoid activation of intrinsic muscarinic receptors. Experiments were performed at room temperature. Isoflurane was prepared from a saturated solution by serial dilution. Concentrations were verified by gas chromatography.
Oocytes were tested at a membrane potential of −60 mV. Bolus application of the agonist +/− indicated antagonist(s) was applied at a rate of 4 ml/min for a 2 second application.
Antagonists were pre-applied for 2 minutes prior to activation. Concentration response curves were made from the percent change in peak current from ACh activation in the presence of antagonist(s), compared to ACh alone. As the ACh concentration at central neuronal nAChRs is unknown, 1 mM ACh (saturating) was used to detect inhibition by isoflurane and mecamylamine experiments with mecamylamine. ACh 2 μM was used to detect potentiation by nicotine. Currents were measured in 5-8 cells for each data point. Clampex 7 (Axon instruments, Foster City, Calif.) was used for data acquisition.
Microcal Origins 5.0 (Microcal, Northampton, Mass.) was used for statistical calculations and graphical presentation. The in vitro data were fit to a modified Hill equation, y=100/(1+(x/IC50)^n), where IC50 is the concentration of drug at which of 50% of the response is inhibited and n is the Hill coefficient.

[2] = system: β2 nicotinic knockout male C57/B16 mice; test: HPWL in β2 nicotinic knockout mice; format: in vivo; details: vs wild type controls; 0.28% isoflurane, p<0.001
Description: The subunit composition of the nicotinic receptors responsible for the analgesic effects of nicotinic agonists is controversial. […] Nicotinic antagonists specific for α7 containing nicotinic achetylcholine receptors can be analgesic in some settings (Damaj, 2000). […] The importance of the nicotinic β2 subunit in male C57/B16 mice and their generation matched wild type controls have been tested (a gift from J. P. Changeux, Institute Pasteur).

[3] = system: ^3H-norepinephrine release from female mouse lumbar spinal cord slice; test: 3H-norepinephrine release from superfused spinal cord slice; details: isoflurane 0.38%
Description: Spinal Cord Slice Preparation: The spinal cord was dissected from the mouse. Under CO2 narcosis the mouse was decapitated. The spinal column was removed and placed into cold dissection solution where the spinal cord was removed with a dissection microscope. The lumbar section of the cord was isolated and imbedded in a 3% low melting point agar (Fisher Scientific) block made in dissection solution. Transverse 400 micrometer slices were made using a Vibratone VT1000S slicing apparatus (Leica, Whetzlar, Germany). Slicing was performed in ice cold Krebs solution bubbled with 5%CO2/95%O2.
The cord slices were incubated in a solution of 1 ml of Krebs solution and 10 ul of 1-[7,8-^3H] noradrenaline in a closed environment surrounded by Krebs solution bubbled with CO2/O2 for 30 minutes. The slices were transferred into a superfusion and stimulation chamber (Warner Instruments Inc.,) where Krebs solution was allowed to perfuse over them for 30 minutes at a rate of 0.5 ml/min. The superfusion chamber thermostatically temperature controlled at 37° C. The solutions were pumped to the chamber at a constant rate of 0.5 ml/min using a Kwik-Pump 290 (Long). Following a 30 minute period for equilibration, collections were taken every 1-2.5 minutes. Ecolite scintillation fluid (15 ml) was then added to each collection vial. The samples were analyzed for radioactivity (CPM) using a Packard TRI CARB 2100 TR scintillation counter (Meriden, Conn.).
Dissection Krebs Solution (mM) NaCl 125, KCl 2.5, NaHCO3 26, NaH2PO4-H2O1.25, MgCl2 6,CaCl2 1.5, glucose 2.5. Perfusion Krebs Solution (mM) NaCl 125, KCl 2.5, NaHCO3 26, NaH2PO4—H2O 1.25, MgCl2 1,CaCl2 2, glucose 2.5.
After incubation with ^3H-norepinephrine, the cord slices were perfused with buffer for 30 minutes at 0.5 ml/minute. After equilibration, samples containing released ^3H-norepinephrine were collected at 2.5 minute intervals. After determination of baseline release, the slices were stimulated with 1 mM nicotine in the perfusion buffer.

male and female mice = test: HPWL by gender, estrus stage, castration, oophorectomy; format: in vivo; details: isoflurane
Procedure: The ovary and oviduct was tied with a double 3.0 polysorb suture. The fascia was closed with 3.0 polysorb and the skin with 4.0 nylon. The procedure was repeated on the other side. The mouse was injected with buprenophine 1 mg/kg prior to emergence for pain control.
Estrogen can directly modulate nicotinic receptors at micromolar concentrations (Paradiso, 2001; Nakazawa, 2001; and Damaj, 2001). Estrogen receptors are co-localized with both nicotinic and muscarinic receptors (Hosli, 2001). Progesterone is inhibitory at nicotinic acetylcholine receptors (Paradiso, 2001; and Damaj, 2001). HPWL was tested at different phases of the female estrus cycle (FIG. 14). […] Oophorectomy (see methods) was performed on six week old female mice. After allowing two weeks for hormonal depletion, and surgical recovery HPWL was again tested.
Furthermore, testosterone was tested to see if it induced a state resistant to isoflurane hyperalgesia. Male mice were castrated and after two weeks for surgical recovery and hormone depletion, hyperalgesia in response to isoflurane was tested. […] In addition to the classical “female hormones”, female mice also have testosterone that is made by the ovary (Halling, 1989). […] Testosterone levels in females decrease after oophorectomy.

mice = system: mice
Description: Nicotinic acetylcholine receptors are involved in the mechanism of isoflurane hyperalgesia, and nicotinic inhibition could be the initiating event.
How could nicotinic inhibition cause hyperalgesia? Nicotine is thought to exert its analgesic action by increasing the release of norepinephrine, serotonin and acetylcholine onto the relay neurons in the dorsal horn of the spinal cord (Rao, 1996; and Reuter, 2000). Isoflurane might reduce pain threshold by inhibiting nicotinic acetylcholine receptors tonically active in potentiating the release of norepinephrine, serotonin and/or acetylcholine. To test the role of the α-adrenergic system, mice were treated systemically with the adrenergic neurotoxin DSP-4 to deplete norepinephrine levels (Jonsson, 1981). The DSP-4 mice 14 days after treatment were tested for HPWL in the presence of isoflurane alone or isoflurane with nicotine pretreatment (see methods).
To test the role of muscarinic receptors for acetylcholine, mice were treated with the nonspecific muscarinic antagonist, atropine. A cholinergic neurotoxin could not be used for these studies, because removing all cholinergic neurons would have nicotinic in addition to muscarinic effects. Instead, postsynaptic muscarinic blockade was used. ACh causes analgesia, at least in part due to muscarinic stimulation (Chiari, 1999; Smith, 1989; and Lavand'homme, 1999). […] High concentrations of atropine can block nicotinic acetylcholine receptors as well (Zwart, 1997).

[4] = system: analgesic action of nicotine; details: Bitner, 1998; cited from earlier work

SMILES | MAC (female mice; isoflurane in these mice) | LORR (female mice; mean partial pressures bracketing postural response and lack of response to supine placement) | mode of antagonism at heteromeric nAChRs [1] | IC50 ([1]; 1 mM ACh, −60 mV, room temperature, read-out: IC50 for inhibition of α4β2 nAChR) [µM] | hyperalgesic effect of isoflurane in β2 nicotinic knockout mice [2] | basal norepinephrine release [3] | nicotine facilitated norepinephrine release ([3]; 1 mM nicotine) | hyperalgesic response after oophorectomy (male and female mice; female mice two weeks after oophorectomy) | hyperalgesic effect by estrus stage (male and female mice; high estrogen (stages 2 and 3) and high progesterone (stage 5)) | hyperalgesic response in male mice (male and female mice; intact males) | hyperalgesic response in castrated males (male and female mice; two weeks after castration) | hyperalgesic effect after norepinephrine depletion (mice; isoflurane, mice 14 days after DSP-4) | isoflurane concentration that caused maximal hyperalgesia (mice; mouse, in vivo) [%] | effect on the analgesic action of nicotine [4]
FC(F)OC(Cl)C(F)(F)F (centres unmarked) [isoflurane] | 1.4% and 1.5±0.1% | 0.59 +0.2% | non-competitive antagonists | 44 | clearly reduced in these animals, but not absent; also recorded: Hyperalgesia was reduced | basal norepinephrine release was reduced | no facilitation by nicotine | more pronounced | less hyperalgesic effect during these stages | less than that in females | increased hyperalgesic responses to isoflurane compared to intact males | no hyperalgesic effect at any subanesthetic concentration | 0.38 | 
C[N+](C)(C)CCCCCC[N+](C)(C)C [Hexamethonium] |  |  |  |  |  |  |  |  |  |  |  |  |  | has no effect on the analgesic action of nicotine
